Laboratory results published in ChEMBL document CHEMBL1127181, “Novel sigma receptor ligands 1” (Bioorg Med Chem Lett, 1993).

Molecular target: Glutamate [NMDA] receptor
Assay: Binding affinity towards PCP receptor in guinea pig brain membrane using radiolabeled ligand [3H]TCP (1-[1-(2-thienyl)cyclohexyl]piperidine) was determined
Assay type: cell membranes, Cavia porcellus

| Ki [µM] | SMILES |
| --- | --- |
| 12 | O=C1C(c2ccc(F)cc2)=COC12CCN(CC1CCCCC1)CC2 |
| 2.23 | O=C1C(c2ccc(F)cc2)COC12CCN(Cc1ccccc1)CC2 (centres undefined) |
| 100 | CCN(CC)CCCC1(C)OC=C(c2ccccc2)C1=O (centres undefined) |
| > 10 | O=C1C(c2ccccc2)=COC12CCN(CC1CCCCC1)CC2 |
| > 10 | O=C1C=C(c2ccccc2)OC12CCN(CCc1ccccc1)CC2 |
| 2.03 | O=C1C(c2ccc(F)cc2)=COC12CCN(Cc1ccc(F)cc1)CC2 |
| 4.4 | O=C1C=C(c2ccccc2)OC12CCN(Cc1ccccc1)CC2 |
| 8.3 | O=C1C=C(c2ccc(F)cc2)OC12CCN(CCc1ccccc1)CC2 |
| > 10 | O=C1C(c2ccc(F)cc2)=COC12CCN(Cc1ccccc1)CC2 |
